Measured values published in US9493441B2, “Acyclic cyanoethylpyrazoles as janus kinase inhibitors” (Merck Sharp & Dohme Corp., priority 2011, dated 2016).
Read-outs that look alike come from different tables or passages of the source.

Columns and labels:
JAK1 = JAK1 (Homo sapiens (Human), UniProt P23458); experiment: Jak biochemical HTRF assay, JAK1
JAK2 = JAK2 (Homo sapiens (Human), UniProt O60674); experiment: Jak biochemical HTRF assay, JAK2
[1] = JAK1 IC50 (nM), recombinant GST-tagged catalytic domain, [ATP] 31.8 μM
[2] = JAK2 IC50 (nM), recombinant GST-tagged catalytic domain, [ATP] […]

JAK1, sequence (P23458 875-1153): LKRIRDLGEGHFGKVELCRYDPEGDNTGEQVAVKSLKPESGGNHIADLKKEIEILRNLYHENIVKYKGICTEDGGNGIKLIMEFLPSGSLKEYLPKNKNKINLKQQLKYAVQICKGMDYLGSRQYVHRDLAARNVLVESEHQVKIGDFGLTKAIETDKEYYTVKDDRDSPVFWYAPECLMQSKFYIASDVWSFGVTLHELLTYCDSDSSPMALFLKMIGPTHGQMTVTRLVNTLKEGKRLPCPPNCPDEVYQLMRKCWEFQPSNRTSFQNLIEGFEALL
JAK2, sequence (O60674 849-1124): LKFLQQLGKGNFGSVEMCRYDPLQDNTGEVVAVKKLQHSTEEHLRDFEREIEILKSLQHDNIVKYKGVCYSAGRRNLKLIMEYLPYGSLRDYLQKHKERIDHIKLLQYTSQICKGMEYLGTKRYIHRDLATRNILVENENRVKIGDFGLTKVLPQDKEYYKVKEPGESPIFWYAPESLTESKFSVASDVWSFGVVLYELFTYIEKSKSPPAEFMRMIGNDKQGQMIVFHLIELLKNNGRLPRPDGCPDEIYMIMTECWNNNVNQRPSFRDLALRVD

SMILES | IC50 (JAK1; [1]) [nM] | IC50 (JAK2; [2]) [nM] | IC50 (JAK1; read-out: JAK1 IC50, recombinant GST-tagged catalytic domain, [ATP] 31.8 μM) [nM] | IC50 (JAK2; read-out: JAK2 IC50, recombinant GST-tagged catalytic domain, [ATP] […]) [nM]
N#CCC(C1CC1)n1cc(C(N)=O)c(Nc2ccc3ccncc3c2)n1 (stereo not shown) [Example 4-15, 1-(2-cyano-1-cyclopropylethyl)-3-(isoquinolin-7-ylamino)-1H-pyrazole-4-carboxamide] | 9 | 39 | – | –
N#CCC(C1CC1)n1cc(C(N)=O)c(Nc2ccccc2F)n1 (stereo not shown) [Example 4-5, 1-(2-cyano-1-cyclopropylethyl)-3-[(2-fluorophenyl)amino]-1H-pyrazole-4-carboxamide] | 360 | 1480 | – | –
N#CCC(C1CCCC1)n1cc(C(N)=O)c(Nc2ccccc2)n1 (stereo not shown) [Example 1-20, 1-(2-cyano-1-cyclopentylethyl)-3-(phenylamino)-1H-pyrazole-4-carboxamide] | 69 | 474 | – | –
COCCOC(=O)N1CCC([C@H](CC#N)n2cc(C(N)=O)c(Nc3ccc(F)cc3)n2)CC1 [Example 12-1, 2-Methoxyethyl 4-[(1S)-1-{4-carbamoyl-3-[(4-fluorophenyl)amino]-1H-pyrazol-1-yl}-2-cyanoethyl]piperidine-1-carboxylate] | 181 | 1500 | – | –
N#CCC(C1CC1)n1cc(C(N)=O)c(Nc2cncc(C#N)c2)n1 (stereo not shown) [Example 4-18, 1-(2-cyano-1-cyclopropylethyl)-3-[(5-cyanopyridin-3-yl)amino]-1H-pyrazole-4-carboxamide] | 131 | 425 | – | –
N#CCC(C1CCCC1)n1cc(C(N)=O)c(Nc2ccccc2)n1 (single isomer, unassigned) [Example 16-3, 1-[(1S or 1R)-2-cyano-1-cyclopentylethyl]-3-(phenylamino)-1H-pyrazole-4-carboxamide] | 47 | 742 | – | –
N#CCC(C1CC1)n1cc(C(N)=O)c(Nc2ccc(S(N)(=O)=O)cc2)n1 (stereo not shown) [Example 6-3, 1-(2-cyano-1-cyclopropylethyl]-3-[(4-sulfamoylphenyl)amino]-1H-pyrazole-4-carboxamide] | 1 | 10 | – | –
CC[C@@H](CC#N)n1cc(C(N)=O)c(Nc2ccccc2)n1 (single isomer, unassigned) [Example 16-2, 1-[(1R or 1S)-1-(cyanomethyl)propyl]-3-(phenylamino)-1H-pyrazole-4-carboxamide] | – | – | 136 | 800
CC(C)(C)OC(=O)N1CCC(C(CC#N)n2cc(C(N)=O)c(Nc3ccccc3)n2)CC1 (stereo not shown) [Example 1-2, tert-butyl 4-{1-[4-carbamoyl-3-(phenylamino)-1H-pyrazol-1-yl]-2-cyanoethyl}piperidine-1-carboxylate] | 7 | 228 | – | –
N#CCC(C1CC1)n1cc(C(N)=O)c(Nc2ccc3c(c2)C=CS3(=O)=O)n1 (stereo not shown) [Example 4-35, 1-(2-cyano-1-cyclopropylethyl)-3-[(1,1-dioxido-1-benzothiophen-5-yl)amino]-1H-pyrazole-4-carboxamide] | 2 | 34 | – | –
CC(CC#N)n1cc(C(N)=O)c(Nc2ccccc2)n1 (stereo not shown) [Example 1-6, 1-(2-cyano-1-methylethyl)-3-(phenylamino)-1H-pyrazole-4-carboxamide] | 61 | 417 | – | –
N#CCC(C1CC1)n1cc(C(N)=O)c(Nc2ccc(C#N)cc2)n1 (stereo not shown) [Example 4-14, 1-(2-cyano-1-cyclopropylethyl)-3-[(4-cyanophenyl)amino]-1H-pyrazole-4-carboxamide] | 5 | 33 | – | –
N#CCC(C1CC1)n1cc(C(N)=O)c(Nc2ccc3c(c2)CN(CC(F)(F)F)C3=O)n1 (stereo not shown) [Example 4-31, 1-(2-cyano-1-cyclopropylethyl)-3-{[1-oxo-2-(2,2,2-trifluoroethyl)-2,3-dihydro-1H-isoindol-5-yl]amino}-1H-pyrazole-4-carboxamide] | 2 | 7 | – | –
N#CC[C@@H](C1CCN(C(=O)OCCN2CCOCC2)CC1)n1cc(C(N)=O)c(Nc2ccc(F)cc2)n1 [Example 11-13, 2-morpholin-4-ylethyl 4-[(1S)-1-{4-carbamoyl-3-[(4-fluorophenyl)amino]-1H-pyrazol-1-yl}-2-cyanoethyl]piperidine-1-carboxylate] | 753 | 1500 | – | –
